Assays:
Format in all cases: in vivo
[1] = system: pigweed (Amaranthus retroflexus); test: Test A preemergence, directed soil spray; details: approx. 10 days
Source text: (§1) Seeds of plant species selected from barnyardgrass (Echinochloa crus-galli), kochia (Kochia scoparia), ragweed (common ragweed, Ambrosia elatior), Italian ryegrass (Lolium multiflorum), giant foxtail (Setaria faberii), and pigweed (Amaranthus retroflexus) were planted into a blend of loam soil and sand and treated preemergence with a directed soil spray using test chemicals formulated in a non-phytotoxic solvent mixture which included a surfactant. At the same time, plants selected from these weed species and also wheat (Triticum aestivum), corn (Zea mays), blackgrass (Alopecurus myosuroides), and galium (catchweed bedstraw, Galium aparine) were planted in pots containing the same blend of loam soil and sand and treated with postemergence applications of test chemicals formulated in the same manner. Plants ranged in height from 2 to 10 cm and were in the one- to two-leaf stage for the postemergence treatment. Treated plants and untreated controls were maintained in a greenhouse for approximately 10 days, after which time all treated plants were compared to untreated controls and visually evaluated for injury. Plant response ratings, summarized in Table A, are based on a 0 to 100 scale where 0 is no effect and 100 is complete control. A dash (-) response means no test result.

[2] = system: giant foxtail (Setaria faberii); test: Test A preemergence, directed soil spray; details: approx. 10 days
Source text: as §1

[3] = system: Italian ryegrass (Lolium multiflorum); test: Test A preemergence, directed soil spray; details: approx. 10 days
Source text: as §1

[4] = system: kochia (Kochia scoparia); test: Test A preemergence, directed soil spray; details: approx. 10 days
Source text: as §1

[5] = system: barnyardgrass (Echinochloa crus-galli); test: Test A preemergence, directed soil spray; details: approx. 10 days
Source text: as §1

[6] = system: ragweed (common ragweed, Ambrosia elatior); test: Test A preemergence, directed soil spray; details: approx. 10 days
Source text: as §1

[7] = system: blackgrass (Alopecurus myosuroides); test: Test A postemergence application; details: approx. 10 days
Source text: as §1

[8] = system: pigweed (Amaranthus retroflexus); test: Test A postemergence application; details: approx. 10 days
Source text: as §1

[9] = system: corn (Zea mays); test: Test A postemergence application; details: approx. 10 days
Source text: as §1

[10] = system: wheat (Triticum aestivum); test: Test A postemergence application; details: approx. 10 days
Source text: as §1

[11] = system: giant foxtail (Setaria faberii); test: Test A postemergence application; details: approx. 10 days
Source text: as §1

[12] = system: galium (catchweed bedstraw, Galium aparine); test: Test A postemergence application; details: approx. 10 days
Source text: as §1

[13] = system: Italian ryegrass (Lolium multiflorum); test: Test A postemergence application; details: approx. 10 days
Source text: as §1

[14] = system: kochia (Kochia scoparia); test: Test A postemergence application; details: approx. 10 days
Source text: as §1

[15] = system: barnyardgrass (Echinochloa crus-galli); test: Test A postemergence application; details: approx. 10 days
Source text: as §1

[16] = system: ragweed (common ragweed, Ambrosia elatior); test: Test A postemergence application; details: approx. 10 days
Source text: as §1

[17] = system: ducksalad (Heteranthera limosa); test: Test B flooded paddy test; set-up: key: 0 = no effect, 100 = complete control; details: Flood, 250 g ai/ha applied to paddy water at 2-leaf stage; visually evaluated after 13 to 15 days; scale 0 (no effect) to 100 (complete control)
Procedure: (§2) Plant species in the flooded paddy test selected from rice (Oryza sativa), sedge, umbrella (small-flower umbrella sedge, Cyperus difformis), ducksalad (Heteranthera limosa), and barnyardgrass (Echinochloa crus-galli) were grown to the 2-leaf stage for testing. At time of treatment, test pots were flooded to 3 cm above the soil surface, treated by application of test compounds directly to the paddy water, and then maintained at that water depth for the duration of the test. Treated plants and controls were maintained in a greenhouse for 13 to 15 days, after which time all species were compared to controls and visually evaluated. Plant response ratings, summarized in Table B, are based on a scale of 0 to 100 where 0 is no effect and 100 is complete control. A dash (-) response means no test result.

[18] = system: sedge, umbrella (small-flower umbrella sedge, Cyperus difformis); test: Test B flooded paddy test; set-up: key: 0 = no effect, 100 = complete control; details: Flood, 250 g ai/ha applied to paddy water at 2-leaf stage; visually evaluated after 13 to 15 days; scale 0 (no effect) to 100 (complete control)
Procedure: as §2

[19] = system: barnyardgrass (Echinochloa crus-galli); test: Test B flooded paddy test; set-up: key: 0 = no effect, 100 = complete control; details: Flood, 250 g ai/ha applied to paddy water at 2-leaf stage; visually evaluated after 13 to 15 days; scale 0 (no effect) to 100 (complete control)
Procedure: as §2

[20] = system: rice (Oryza sativa); test: Test B flooded paddy test; set-up: key: 0 = no effect, 100 = complete control; details: Flood, 250 g ai/ha applied to paddy water at 2-leaf stage; visually evaluated after 13 to 15 days; scale 0 (no effect) to 100 (complete control)
Procedure: as §2

## O=c1cccc(Oc2ncc(Cl)cn2)n1-c1cccc(OC(F)(F)F)c1 [Compound 3, 6-[(5-chloro-2-pyrimidinyl)oxy]-1-[3-(trifluoromethoxy)phenyl]-2(1H)-pyridinone]
[1]; 1000 g ai/ha
  Plant response rating (0 to 100 scale, 0 no effect, 100 complete control), Pigweed: 70
[2]; 1000 g ai/ha
  Plant response rating (0 to 100 scale, 0 no effect, 100 complete control), Foxtail, Giant: 100
[3]; 1000 g ai/ha
  Plant response rating (0 to 100 scale, 0 no effect, 100 complete control), Ryegrass, Italian: 50
[4]; 1000 g ai/ha
  Plant response rating (0 to 100 scale, 0 no effect, 100 complete control), Kochia: 40
[5]; 1000 g ai/ha
  Plant response rating (0 to 100 scale, 0 no effect, 100 complete control), Barnyardgrass: 80
[6]; 1000 g ai/ha
  Plant response rating (0 to 100 scale, 0 no effect, 100 complete control), Ragweed: 20
[7]; 1000 g ai/ha
  Plant response rating (0 to 100 scale, 0 no effect, 100 complete control), Blackgrass: 40
[8]; 1000 g ai/ha
  Plant response rating (0 to 100 scale, 0 no effect, 100 complete control), Pigweed: 90
[9]; 1000 g ai/ha
  Plant response rating (0 to 100 scale, 0 no effect, 100 complete control), Corn: 20
[10]; 1000 g ai/ha
  Plant response rating (0 to 100 scale, 0 no effect, 100 complete control), Wheat: 30
[11]; 1000 g ai/ha
  Plant response rating (0 to 100 scale, 0 no effect, 100 complete control), Foxtail, Giant: 100
[12]; 1000 g ai/ha
  Plant response rating (0 to 100 scale, 0 no effect, 100 complete control), Galium: 100
[13]; 1000 g ai/ha
  Plant response rating (0 to 100 scale, 0 no effect, 100 complete control), Ryegrass, Italian: 30
[14]; 1000 g ai/ha
  Plant response rating (0 to 100 scale, 0 no effect, 100 complete control), Kochia: 90
[15]; 1000 g ai/ha
  Plant response rating (0 to 100 scale, 0 no effect, 100 complete control), Barnyardgrass: 70
[16]; 1000 g ai/ha
  Plant response rating (0 to 100 scale, 0 no effect, 100 complete control), Ragweed: 30
[17]
  Plant response rating, Ducksalad: 0
[18]
  Plant response rating, Sedge, Umbrella: 0
[19]
  Plant response rating, Barnyardgrass: 0
[20]
  Plant response rating, Rice: 0

## O=c1cccc(Oc2ncc(Cl)cn2)n1-c1ncc(F)cn1 [Compound 4]
[1]; 31 g ai/ha
  Plant response rating (0 to 100 scale, 0 no effect, 100 complete control), Pigweed: 70
[1]; 125 g ai/ha
  Plant response rating (0 to 100 scale, 0 no effect, 100 complete control), Pigweed: 70
[2]; 31 g ai/ha
  Plant response rating (0 to 100 scale, 0 no effect, 100 complete control), Foxtail, Giant: 0
[2]; 125 g ai/ha
  Plant response rating (0 to 100 scale, 0 no effect, 100 complete control), Foxtail, Giant: 20
[3]; 31 g ai/ha
  Plant response rating (0 to 100 scale, 0 no effect, 100 complete control), Ryegrass, Italian: 0
[3]; 125 g ai/ha
  Plant response rating (0 to 100 scale, 0 no effect, 100 complete control), Ryegrass, Italian: 0
[4]; 31 g ai/ha
  Plant response rating (0 to 100 scale, 0 no effect, 100 complete control), Kochia: 0
[4]; 125 g ai/ha
  Plant response rating (0 to 100 scale, 0 no effect, 100 complete control), Kochia: 70
[5]; 31 g ai/ha
  Plant response rating (0 to 100 scale, 0 no effect, 100 complete control), Barnyardgrass: 0
[5]; 125 g ai/ha
  Plant response rating (0 to 100 scale, 0 no effect, 100 complete control), Barnyardgrass: 0
[6]; 31 g ai/ha
  Plant response rating (0 to 100 scale, 0 no effect, 100 complete control), Ragweed: 0
[6]; 125 g ai/ha
  Plant response rating (0 to 100 scale, 0 no effect, 100 complete control), Ragweed: 0
[7]; 31 g ai/ha
  Plant response rating (0 to 100 scale, 0 no effect, 100 complete control), Blackgrass: 20
[7]; 125 g ai/ha
  Plant response rating (0 to 100 scale, 0 no effect, 100 complete control), Blackgrass: 20
[8]; 31 g ai/ha
  Plant response rating (0 to 100 scale, 0 no effect, 100 complete control), Pigweed: 50
[8]; 125 g ai/ha
  Plant response rating (0 to 100 scale, 0 no effect, 100 complete control), Pigweed: 70
[9]; 31 g ai/ha
  Plant response rating (0 to 100 scale, 0 no effect, 100 complete control), Corn: 0
[9]; 125 g ai/ha
  Plant response rating (0 to 100 scale, 0 no effect, 100 complete control), Corn: 10
[10]; 31 g ai/ha
  Plant response rating (0 to 100 scale, 0 no effect, 100 complete control), Wheat: 0
[10]; 125 g ai/ha
  Plant response rating (0 to 100 scale, 0 no effect, 100 complete control), Wheat: 0
[11]; 31 g ai/ha
  Plant response rating (0 to 100 scale, 0 no effect, 100 complete control), Foxtail, Giant: 0
[11]; 125 g ai/ha
  Plant response rating (0 to 100 scale, 0 no effect, 100 complete control), Foxtail, Giant: 0
[12]; 31 g ai/ha
  Plant response rating (0 to 100 scale, 0 no effect, 100 complete control), Galium: 30
[12]; 125 g ai/ha
  Plant response rating (0 to 100 scale, 0 no effect, 100 complete control), Galium: 50
[13]; 31 g ai/ha
  Plant response rating (0 to 100 scale, 0 no effect, 100 complete control), Ryegrass, Italian: 0
[13]; 125 g ai/ha
  Plant response rating (0 to 100 scale, 0 no effect, 100 complete control), Ryegrass, Italian: 0
[14]; 31 g ai/ha
  Plant response rating (0 to 100 scale, 0 no effect, 100 complete control), Kochia: 40
[14]; 125 g ai/ha
  Plant response rating (0 to 100 scale, 0 no effect, 100 complete control), Kochia: 80
[15]; 31 g ai/ha
  Plant response rating (0 to 100 scale, 0 no effect, 100 complete control), Barnyardgrass: 0
[15]; 125 g ai/ha
  Plant response rating (0 to 100 scale, 0 no effect, 100 complete control), Barnyardgrass: 0
[16]; 31 g ai/ha
  Plant response rating (0 to 100 scale, 0 no effect, 100 complete control), Ragweed: 10
[16]; 125 g ai/ha
  Plant response rating (0 to 100 scale, 0 no effect, 100 complete control), Ragweed: 20
[17]
  Plant response rating, Ducksalad: 0
[18]
  Plant response rating, Sedge, Umbrella: 0
[19]
  Plant response rating, Barnyardgrass: 0
[20]
  Plant response rating, Rice: 0
